The values below are quoted from earlier work in patent US12599565B2, “Stable benzimidazole formulation” (DEXCEL PHARMA TECHNOLOGIES LTD., priority 2008, dated 2026).

Regarding `COc1ccc2[nH]c([S+]([O-])Cc3ncc(C)c(OC)c3C)nc2c1` (centres unmarked) [Omeprazole, 5-methoxy-2(((4-methoxy-3,5-dimethyl-2-pyridinyl)methyl)sulfinyl)-1H-benzimidazole], the half life entry (pH 11) is listed as “about 300 days”. In addition, where the note is “pH values below 4.0”, the half-life of degradation entry is recorded as “less than 10 minutes”.
